7 compounds from article PMC7038073, “Substituted Piperazines as Novel Potential Radioprotective Agents” (Molecules, 2020) can be followed below.

Common to all, as to format: cell-based
The nature of series [1]: WST-1 cytotoxicity test, HT-29. Particulars: human, HT-29 cells, 48 h, WST-1, mean ± SD of three experiments, read-out: relative viability (%) compared to untreated control; for viability at 48 h, 10 µM: HT-29, 10 µM; for viability at 48 h, 100 µM: HT-29, 100 µM. Here is the method: (§1) In this study, the cytotoxic effects of nine new compounds (2, 3, 4, 5, 6, 7, 8, 9, 10) were tested on 10 human cell lines (nine cancer and one non-cancer cell line). The cell lines were treated with each compound at concentrations of 10 µM and 100 µM for 48 h. The proliferation capacity of the treated cells was determined by WST-1 test and compared against the proliferation rate of the untreated control cells (100%).
(§2) The cell lines Jurkat, MOLT-4, A2780, A549, HT-29, PANC-1, HeLa, MCF-7, SAOS-2, and MRC-5 (all purchased from Sigma Aldrich, Czech Republic) were included in this study. All cell lines were maintained according to the provider’s guidelines, and plated and treated in 96-well plates (500 to 30 × 10^3 cells per well). The tested compounds 2, 3, 4, 5, 6, 7, 8, 9, and 10 were dissolved in 0.1% DMSO and kept in 10 mM stock solutions. Before use, the stock solution was diluted in culture media at ratios of 1:100 and 1:1000. The studied cell lines were treated with the compounds 2, 3, 4, 5, 6, 7, 8, 9, and 10 at concentrations of 10 and 100 µM for 48 h. Control cells were tested in culture media with and without DMSO (0.1%). The cells were also treated with 1 µM doxorubicin as a cytotoxicity control.
(§3) The WST-1 (2-(4-iodophenyl)-3-(4-nitrophenyl)-5-(2,4-disulfophenyl)-2H-tetrazolium, monosodium salt) test (Roche, Mannheim, Germany) was used according to the manufacturer’s protocol to determine cell viability in all 10 cell lines 48 h after treatment with the tested compounds. The cells were analyzed in a Tecan Infinite M200 spectrometer (Tecan Group, Männedorf, Switzerland) at 440 nm.
(Formazan colour is commonly taken as a measure of viable cells.)

Series [2] is described as follows: WST-1 cytotoxicity test, PANC-1. Particulars: human, PANC-1 cells, 48 h, WST-1, mean ± SD of three experiments, read-out: relative viability (%) compared to untreated control; for viability at 48 h, 10 µM: PANC-1, 10 µM; for viability at 48 h, 100 µM: PANC-1, 100 µM. Here is the method:
as §1, §2, §3

Series [3] in a line: WST-1 cytotoxicity test, MRC-5. Particulars: human, MRC-5 cells, 48 h, WST-1, mean ± SD of three experiments, read-out: relative viability (%) compared to untreated control; for viability at 48 h, 10 µM: MRC-5, 10 µM; for viability at 48 h, 100 µM: MRC-5, 100 µM. Here is the method: as §1, §2, §3
Series [4] deals with 10 human cell lines (nine cancer and one non-cancer cell line). The experiment in a line: WST-1 cytotoxicity test, statements over all cell lines. Particulars: 100 µM, 48 h, studied cell lines. Here is the method: as §1, §2, §3
Series [5] is described as follows: WST-1 cytotoxicity test, Jurkat. Particulars: human, Jurkat cells, 48 h, WST-1, mean ± SD of three experiments, read-out: relative viability (%) compared to untreated control. Here is the method:
as §1, §2, §3

Structures can show the parent of a compound that is named as a salt.

The term viability denotes a read-out of living cells in per cent, often relative to untreated cells. As for `Cc1cc(OCC(O)CN2CCN(CCO)CC2)ccc1Cl.Cl.Cl` (stereo not drawn) [Compound 4, 1-(4-chloro-3-methylphenoxy)-3-(4-(2-hydroxyethyl)piperazin-1-yl)propan-2-ol dihydrochloride], the viability at 48 h, 10 µM in series [1] stood at 100 ± 2%; in series [2] it was 97 ± 7%; in series [3], 97 ± 8%; in series [5] it was 105 ± 5%. The viability at 48 h, 100 µM in series [1] came out at 83 ± 4%; in series [2], 111 ± 24%; in series [3], 93 ± 5%; in series [5] it was 89 ± 1%. For the same compound, in series [4], the “cytotoxic effect (in words)” value is recorded as “no significant cytotoxic effects”.
Turning to `Cl.Cl.Cl.OCCN1CCN(CCCNc2ccccc2)CC1` [Compound 5, 2-(4-(3-(phenylamino)propyl)piperazin-1-yl)ethanol trihydrochloride], the viability at 48 h, 10 µM in series [1] came to 91 ± 2%; in series [2], 86 ± 16%; in series [3], 98 ± 7%; in series [5] it was 98 ± 4%. Further, the viability at 48 h, 100 µM is 109 ± 2% in series [1], 115 ± 7% in series [2], 102 ± 8% in series [3] and 98 ± 3% in series [5]. In series [4], the “cytotoxic effect (in words)” value is listed as “no significant cytotoxic effects”.
Take `Cl.Cl.Cl.OCCN1CCN(CCCNc2cccc3ccccc23)CC1` [Compound 6, 2-(4-(3-(naphthalen-1-ylamino)propyl)piperazin-1-yl)ethanol trihydrochloride]: the viability at 48 h, 10 µM was 86 ± 4% in series [1], 92 ± 11% in series [2], 91 ± 4% in series [3] and 101 ± 1% in series [5]. Moreover, the viability at 48 h, 100 µM in series [1] worked out at 97 ± 4%; in series [2], 111 ± 5%; in series [3], 94 ± 2%; in series [5], 93 ± 2%. Besides, the “cytotoxic effect (in words)” value in series [4] is listed as “no significant cytotoxic effects”.
With `COc1ccc(NCCCN2CCN(CCO)CC2)cc1.Cl.Cl.Cl` [Compound 7, 2-(4-(3-((4-methoxyphenyl)amino)propyl)piperazin-1-yl)ethanol trihydrochloride], the viability at 48 h, 10 µM in series [1] is 96 ± 3%; in series [2], 99 ± 10%; in series [3], 100 ± 3%; in series [5], 100 ± 5%. Further, the viability at 48 h, 100 µM in series [1] was determined as 118 ± 2%; in series [2] it was 116 ± 3%; in series [3], 104 ± 3%; in series [5] it was 96%. In addition, in series [4], the “cytotoxic effect (in words)” value is listed as “no significant cytotoxic effects”.
`OCCN1CCN(CC(O)CN2CCN(CCO)CC2)CC1` [Compound 8, 1.3-bis [4-(2-hydroxyethyl)piperazin-1-yl)propan-2-ol tetrahydrochloride]: the viability at 48 h, 10 µM in series [1] is 101 ± 1%; in series [2] it was 98 ± 9%; in series [3], 95 ± 7%; in series [5], 103 ± 5%. For the same compound, the viability at 48 h, 100 µM was 154 ± 11% in series [1], 117 ± 11% in series [2], 119 ± 16% in series [3] and 96 ± 13% in series [5]. In addition, the “cytotoxic effect (in words)” value in series [4] is listed as “no significant cytotoxic effects”.
For the compound `Cl.Cl.OC(CNc1ccccc1)CNc1ccccc1` [Compound 9, 1,3-bis(phenylamino)propan-2-ol dihydrochloride], the viability at 48 h, 10 µM is 102 ± 5% in series [1], 93 ± 12% in series [2], 102 ± 8% in series [3] and 104 ± 5% in series [5]. The viability at 48 h, 100 µM in series [1] is 148 ± 2%; in series [2], 118 ± 5%; in series [3] it was 120 ± 16%; in series [5], 79 ± 11%. In addition, the “cytotoxic effect (in words)” value in series [4] is recorded as “no significant cytotoxic effects”.
In the case of `Cl.Cl.Cl.OCCN1CCN(CC(O)CNc2ccccc2)CC1` (stereo not drawn) [Compound 10, 1-(phenylamino]-3-[4-(2-hydroxyethyl)piperazin-1-yl)propan-2-ol trihydrochloride], the viability at 48 h, 10 µM is 104 ± 11% in series [1], 95 ± 7% in series [2], 102 ± 3% in series [3] and 108 ± 7% in series [5]. Moreover, the viability at 48 h, 100 µM in series [1] was 113 ± 2%; in series [2] it was 111 ± 6%; in series [3] it was 102 ± 8%; in series [5], 95 ± 4%. Also, the “cytotoxic effect (in words)” value in series [4] is given as “no significant cytotoxic effects”.
